Measurements taken from patent US20130210771A1, “METHODS AND COMPOSITIONS FOR TREATING CANCERS” (IRM LLC, priority 2007, published 2013).
Where a name gives a salt, the structure may show the parent alone.

Tests used:
[1] = system: BCR-ABL positive leukemia; experiment: treatment of mice transplanted with BCR-ABL positive bone marrow (CML-like disease); assay type: in vivo, mouse
Experimental: Ptch+/− mice (Jackson Laboratory), Smo−/− mice (Deltagene), C57BL/6 mice (Jackson laboratory) and B6-Pep3b-Ly5.1 (Pep) mice) are maintained and genotyped as described. For bone marrow transplantation experiments, C57BL/6 males are injected with 5-FU (150 mg/kg) intraperitoneal and sacrificed four days later. Bone marrow mononuclear cells are flushed from the leg bones, red blood cells are lysed with ammonium-chloride and bone marrow cells are cultivated in DMEM containing 10% FBS, SCF, IL-6 and IL-3. Cells are infected with a pMSCV/BCR-ABL/IRES/GFP retrovirus, 5×10^5 mononuclear cells are transplanted into lethally irradiated C57BL/6 mice. Treatment with AMN107 50 mg/kg bid (Novartis, Basel) and cyclopamine 25 mg/kg bid (Novartis, Cambridge) started day 7 after transplantation for 14 days.
Mice transplanted with BCR-ABL positive bone marrow is treated with either a suboptimal dose of the ABL inhibitor AMN107, or with a combination of AMN107 (50 mg/kg qd) and the Smo antagonist cyclopamine (25 mg/kg bid). Treatment is started seven days after transplantation and is continued for fourteen days total. At the end of the treatment, three mice in each group are sacrificed and bone marrow from 1 femur is plated in methyl cellulose colony assays without addition of cytokines to detect only BCR-ABL positive colonies.
Eight days after the end of treatment, another three mice per group are sacrificed and examined for signs of relapse by comparing liver and spleen weight. […] The five remaining mice in each group are monitored for signs of disease and sacrificed when moribund.

[2] = system: Ba/F3 cells transfected with M351T mutant BCR-ABL; settings: cited from earlier work
[3] = system: Ba/F3 cells transfected with p210 non-mutated BCR-ABL; settings: cited from earlier work
[4] = system: Ba/F3 cells transfected with E255V mutant BCR-ABL; settings: cited from earlier work
CML = CML therapy; cited from earlier work
[5] = system: BCR-ABL positive bone marrow cells; experiment: in vitro treatment of mixed bone marrow cultures from mice with CML-like syndrome, flow cytometry; assay type: cell-based, mouse
Experimental: (§1) Bone marrow cells from diseased mice are cultured in DMEM media containing 10% FBS (Gibco), SCF (RDI), IL-3 and IL-6 (R&D systems). For in-vitro treatment experiments, 4×10^6 bone marrow or spleen cells are seeded into 1 well of a 6-well plate. Cyclopamine-KAAD (obtained from Toronto Research Chemicals) is dissolved as ×1,000 stock in DMSO. After 72 hours of treatment, cells are plated in methyl cellulose media containing SCF, IL-6, IL-3 and insulin from stem cell technologies (M3434) according to the manufacturer's instruction. Colonies are counted 5 days and 10 days after plating. After 12 days, cells are diluted from the plates, washed in PBS and then either stained for analysis of different cell types or replated into a second or third plating round.
Flow cytometry stainings for analysis of hematological cell types is performed using the antibodies Sca-PE, Kit-APC, Lin markers CD3, Gr-1, CD11b, CD19, Ter119 all PE-Cy7 positive, CD4-PE, CD8-APC from BD Pharmingen according to the manufacturer's instructions. For cell cycle analysis of stem cells, cells are treated with cyclopamine for 48 hours, then stained with Lin markers, Kit-APC and Sca-PE. Stained bone marrow is then fixed in 2% Formalin. Cells are permeabilized with 70% chilled ethanol for at least 1 hour and then treated with propidium iodide (5 mg/ml) for at least 30 minutes. Cells are analyzed using a flow cytometer from Coulter. Annexin staining is performed after incubation of mixed bone marrow with cyclopamine for 24, 48 and 72 hours. Cells are stained with Annexin-PE antibody and 7-AAD (BD Bioscience) according to the manufacturer's instructions.
Bone marrow from mice with CML-like syndrome which contained about 50% BCR-ABL GFP positive cells versus 50% normal bone marrow cells is used. […] GFP positive cells after in vitro treatment with cyclopamine (2 μM or 5 μM) can be detected by flow cytometry analysis.
(§2) Gli1 transcript levels in the bone marrow are reduced after treatment with cyclopamine, verifying the inhibition of the hedgehog signaling pathway in those cells by the compound (FIG. 2B). In FIG. 2B, bone marrow cultures are treated with either DMSO alone or different concentrations of cyclopamine (2 μM or 5 μM) for six hours. RNA is extracted from treated cultures and Gli1 transcript levels are measured by Taqman PCT and normalized to GAPDH. Assays are done in triplicates.

[6] = system: BCR-ABL positive colonies; experiment: methyl cellulose colony assay of pretreated mixed bone marrow and spleen cultures; assay type: cell-based, mouse; settings: 10, 5, 2.5, 1 and 0 uM for 48 hours; colonies counted 10 days after plating, no cytokines (FIG. 2C)
Experimental: as §1
To further validate the effect of hedgehog pathway inhibition on the self renewing progenitor and leukemic stem cell population, mixed bone marrow and spleen cultures are treated with different concentrations of cyclopamine-KAAD (10, 5, 2.5, 1 and 0 uM) for 48 hours. The cells are then plated in methyl cellulose plates without supplementary cytokines, so that only BCR-ABL positive cells can survive. Colonies are counted 10 days after plating.

Aurora kinases = settings: cited from earlier work
[7] = system: human CML K562 cells selected for resistance to imatinib; settings: cited from earlier work
Gli1 = Gli1 transcript levels in treated bone marrow cultures (Taqman PCR); assay type: cell-based, mouse; settings: 2 μM or 5 μM, six hours, normalized to GAPDH (FIG. 2B)
Experimental: RNA is extracted from CD34+ cells from CML patients in chronic phase or blast crisis of disease, from whole bone marrow or from sorted Lin−Kit+Sca+ positive cells using a Qiagen RNA extraction kit according to the manufacturer's recommendation. Quantitative PCR is assessed by Taqman PCR. Primers and probes are obtained from Applied Biosystems.
as §2

[8] = eight days after the end of treatment
[9] = mixed bone marrow cultures, 72 hours (FIG. 2A)

## Cc1cn(-c2cc(NC(=O)c3ccc(C)c(Nc4nccc(-c5cccnc5)n4)c3)cc(C(F)(F)F)c2)cn1 [AMN107, nilotinib]
[1]; at the end of the treatment
  peripheral blood cell counts, spleen and liver weights: normal
[1]; [8]
  average spleen size relative to the combination group: about double
  liver weight relative to the combination group: much higher
[1]; five mice per group, sacrificed when moribund (FIG. 5C)
  average survival after end of treatment: eight

## NC(=O)c1cccc(-c2cc(Nc3ccc(OC(F)(F)F)cc3)ncn2)c1 [GNF-2, 3-[6-[[4-(trifluoromethoxy)phenyl]amino]-4-pyrimidinyl]benzamide]
[2]
  proliferation of Ba/F3 cells, M351T mutant BCR-ABL: inhibits the proliferation
[3]
  proliferation of Ba/F3 cells, p210 non-mutated BCR-ABL: inhibits the proliferation
[4]
  proliferation of Ba/F3 cells, E255V mutant BCR-ABL: inhibits the proliferation

## Cc1ccc(NC(=O)c2ccc(CN3CCN(C)CC3)cc2)cc1Nc1nccc(-c2cccnc2)n1 [Imatinib mesylate]
CML
  response rates: more than 96%

## CC1=C2C[C@H]3[C@@H](CC=C4CC(=O)CC[C@@]43C)[C@@H]2CC[C@]12O[C@@H]1C[C@H](C)CN(CCNC(=O)CCCCCNC(=O)CCc3ccccc3)[C@H]1[C@H]2C [KAAD-cyclopamine]
[5]; mixed bone marrow cultures, three days, 2 μM or 5 μM
  reduction of the GFP/BCR-ABL positive population compared to the GFP negative population: dose dependent reduction
[6]
  BCR-ABL positive colonies: dose dependent reduction

## Cc1cc(Nc2cc(N3CCN(C)CC3)nc(Sc3ccc(NC(=O)C4CC4)cc3)n2)n[nH]1 [MK-0457]
Aurora kinases
  inhibition of all three Aurora kinases: nanomolar range

## Cc1cc(Nc2ncc3cc(-c4c(Cl)cccc4Cl)c(=O)n(C)c3n2)ccc1F [PD180970]
[7]
  proliferation of imatinib-resistant K562 cells over-expressing Lyn: inhibited

## CC1=C2C[C@H]3[C@@H](CC=C4C[C@@H](O)CC[C@@]43C)[C@@H]2CC[C@]12O[C@@H]1C[C@H](C)CN[C@H]1[C@H]2C [cyclopamine]
[5]; 48 hours, propidium iodide
  alterations in the cell cycle, complete bone marrow: relative increase of the G1 phase compared to S phase and G2 phase
  cell cycle analysis of the leukemic stem cell population: complete loss of the G2 phase
[5]; AnnexinV staining
  apoptosis induction in BCR-ABL positive bone marrow cells, time: ≤ 24 h
[5]; [9]
  reduction of BCR-ABL positive myeloid progenitor cells (Lin−Kit+Sca−): more than 80%
  reduction of the Lin−Kit+Sca+ leukemic stem cell population: around 70%
Gli1
  Gli1 transcript levels in the bone marrow: reduced
